Patent US20240165052A1 (priority 2021, published 2024)

Experiments:
[1] = tested on: porcine mucosa (mucosa oesophagus); experiment: in vitro permeation of (S)-ketamine, Franz diffusion cell; conditions: 37° C.
[2] = pH of phosphate buffer (donor medium) with (S)-ketamine HCl or OTF; assay type: physicochemical
[3] = at 20° C.; cited from earlier work

In the case of `CNC1(c2ccccc2Cl)CCCCC1=O` (racemic) [(S)-ketamine, (S)-(±)-2-(2-chlorophenyl)-2-(methylamino)cyclohexan-1-one], the “permeation rate of S-ketamine” value ([1]; 2.77 mg (S)-ketamine HCl on mucosa, acidic buffer as donor, FIG. 1) is reported as “lowest permeation rate”, the “permeation of S-ketamine” value ([1]; 2.77 mg (S)-ketamine HCl on mucosa, neutral buffer as donor, FIG. 1) is reported as “best” and the “permeation rate of S-ketamine” value ([1]; 0.287 cm^2 OTF formulation 1 + 70 μL acidic buffer, FIG. 2) is reported as “lowest permeation rate”. For the same compound, the “permeation of S-ketamine” value ([1]; 0.287 cm^2 OTF formulation 1 + 70 μL alkaline buffer, FIG. 2) was “best”.
With `CN[C@]1(c2ccccc2Cl)CCCCC1=O.Cl` [(S)-ketamine HCl] the “Buffer + (S)-ketamine HCl pH at 22° C.” value ([2]; acidic buffer (pH 4.99 at 22° C.)) was 4.92, the “Buffer + (S)-ketamine HCl pH at 22° C.” value ([2]; alkaline buffer (pH 8.33 at 22° C.)) was 7.81 and the “Buffer + (S)-ketamine HCl pH at 22° C.” value ([2]; neutral buffer (pH 7.46 at 22° C.)) was 6.64.
For `NC(CO)(CO)CO` [TRIS, tris(hydroxymethyl)aminomethane], the pKs [3] is given as 8.2.
